PubChem BioAssay (NCI)
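These data come from cells grown in 96-well plates and exposed to compound for 48 hours at five concentrations. GI50: concentration for 50% inhibition of growth. TGI: concentration producing complete growth inhibition.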

Key:
Experiment in all cases: inhibition of tumour cell growth, NCI panel, 48 h
HCC-2998 colon = test system: HCC-2998 colon
SF-539 CNS = test system: SF-539 CNS
SF-295 CNS = test system: SF-295 CNS
M14 melanoma = test system: M14 melanoma
CCRF-CEM leukemia = test system: CCRF-CEM leukemia
HOP-92 NSCLC = test system: HOP-92 NSCLC
ACHN renal = test system: ACHN renal
UACC-257 melanoma = test system: UACC-257 melanoma
UO-31 renal = test system: UO-31 renal
HS 578T breast = test system: HS 578T breast
OVCAR-8 ovarian = test system: OVCAR-8 ovarian
SW-620 colon = test system: SW-620 colon
LOX IMVI melanoma = test system: LOX IMVI melanoma
NCI-H23 lung = test system: NCI-H23 lung
HT29 colon = test system: HT29 colon
TK-10 renal = test system: TK-10 renal
RPMI-8226 leukemia = test system: RPMI-8226 leukemia
NCI-H226 lung = test system: NCI-H226 lung
MDA-MB-231 breast = test system: MDA-MB-231 breast
SF-268 CNS = test system: SF-268 CNS
MDA-MB-435 = test system: MDA-MB-435
T-47D breast = test system: T-47D breast
OVCAR-4 ovarian = test system: OVCAR-4 ovarian
NCI-H522 lung = test system: NCI-H522 lung
U251 CNS = test system: U251 CNS
BT-549 breast = test system: BT-549 breast
SK-OV-3 ovarian = test system: SK-OV-3 ovarian
NCI-H460 lung = test system: NCI-H460 lung
KM12 colon = test system: KM12 colon
HL-60(TB) leukemia = test system: HL-60(TB) leukemia
CAKI-1 renal = test system: CAKI-1 renal
K-562 leukemia = test system: K-562 leukemia
RXF 393 renal = test system: RXF 393 renal
SNB-75 CNS = test system: SNB-75 CNS
A549 NSCLC = test system: A549 NSCLC
MALME-3M melanoma = test system: MALME-3M melanoma
SK-MEL-28 melanoma = test system: SK-MEL-28 melanoma
SR leukemia = test system: SR leukemia
IGROV1 ovarian = test system: IGROV1 ovarian
PC-3 prostate = test system: PC-3 prostate
NCI/ADR-RES ovarian = test system: NCI/ADR-RES ovarian
HCT-116 colon = test system: HCT-116 colon
EKVX NSCLC = test system: EKVX NSCLC
MOLT-4 leukemia = test system: MOLT-4 leukemia
SK-MEL-5 melanoma = test system: SK-MEL-5 melanoma
OVCAR-5 ovarian = test system: OVCAR-5 ovarian
COLO 205 colon = test system: COLO 205 colon
HCT-15 colon = test system: HCT-15 colon
HOP-62 NSCLC = test system: HOP-62 NSCLC
SK-MEL-2 melanoma = test system: SK-MEL-2 melanoma
SN12C renal = test system: SN12C renal
SNB-19 CNS = test system: SNB-19 CNS
UACC-62 melanoma = test system: UACC-62 melanoma
OVCAR-3 ovarian = test system: OVCAR-3 ovarian
DU-145 prostate = test system: DU-145 prostate
MCF7 breast = test system: MCF7 breast
786-0 renal = test system: 786-0 renal
A498 renal = test system: A498 renal

Compound `COc1nnc2ccc(N3CCC(c4ccc(OCCN5CCN(C)C(=O)[C@H]5C)cc4)CC3)nn12` has a GI50 (HCC-2998 colon) of 138 nM, a TGI (HCC-2998 colon) of 16100 nM and a GI50 (SF-539 CNS) of 116 nM. It also gave a TGI (SF-539 CNS) of over 100000 nM, a GI50 (SF-295 CNS) of 206 nM and a TGI (SF-295 CNS) of over 100000 nM. For the same compound, the GI50 (M14 melanoma) was 93.4 nM, the TGI (M14 melanoma) was over 100000 nM and the GI50 (CCRF-CEM leukemia) was 323 nM. For the same compound, the TGI (CCRF-CEM leukemia) was over 100000 nM, the GI50 (HOP-92 NSCLC) was 54.1 nM and the TGI (HOP-92 NSCLC) was over 65300 nM. The GI50 (ACHN renal) was 172 nM, the TGI (ACHN renal) was over 100000 nM and the GI50 (UACC-257 melanoma) was 187 nM. It also gave a TGI (UACC-257 melanoma) of over 100000 nM, a GI50 (UO-31 renal) of 39.6 nM and a TGI (UO-31 renal) of over 100000 nM. It also gave a GI50 (HS 578T breast) of 41.9 nM, a TGI (HS 578T breast) of over 62700 nM and a GI50 (OVCAR-8 ovarian) of 544 nM. The TGI (OVCAR-8 ovarian) was over 100000 nM, the GI50 (SW-620 colon) was 5030 nM and the TGI (SW-620 colon) was over 100000 nM. The GI50 (LOX IMVI melanoma) was 38 nM, the TGI (LOX IMVI melanoma) was 4560 nM and the GI50 (NCI-H23 lung) was 356 nM. It also gave a TGI (NCI-H23 lung) of over 100000 nM, a GI50 (HT29 colon) of 39.2 nM and a TGI (HT29 colon) of over 100000 nM. The GI50 (TK-10 renal) was 55.5 nM, the TGI (TK-10 renal) was over 70200 nM and the GI50 (RPMI-8226 leukemia) was 22.9 nM. It also gave a TGI (RPMI-8226 leukemia) of 54000 nM, a GI50 (NCI-H226 lung) of 2300 nM and a TGI (NCI-H226 lung) of over 67700 nM. The GI50 (MDA-MB-231 breast) was 75.1 nM, the TGI (MDA-MB-231 breast) was over 100000 nM and the GI50 (SF-268 CNS) was 1690 nM. The TGI (SF-268 CNS) was over 100000 nM, the GI50 (MDA-MB-435) was 56.9 nM and the TGI (MDA-MB-435) was over 100000 nM. For the same compound, the GI50 (T-47D breast) was 61.8 nM, the TGI (T-47D breast) was over 69200 nM and the GI50 (OVCAR-4 ovarian) was 106 nM. For the same compound, the TGI (OVCAR-4 ovarian) was over 100000 nM, the GI50 (NCI-H522 lung) was 15.9 nM and the TGI (NCI-H522 lung) was 878 nM. The GI50 (U251 CNS) was 961 nM, the TGI (U251 CNS) was over 100000 nM and the GI50 (BT-549 breast) was 1870 nM. For the same compound, the TGI (BT-549 breast) was over 100000 nM, the GI50 (SK-OV-3 ovarian) was 77.4 nM and the TGI (SK-OV-3 ovarian) was over 42100 nM. For the same compound, the GI50 (NCI-H460 lung) was 373 nM, the TGI (NCI-H460 lung) was over 100000 nM and the GI50 (KM12 colon) was 322 nM. For the same compound, the TGI (KM12 colon) was over 100000 nM, the GI50 (HL-60(TB) leukemia) was 30.9 nM and the TGI (HL-60(TB) leukemia) was over 100000 nM. The GI50 (CAKI-1 renal) was 23.7 nM, the TGI (CAKI-1 renal) was over 100000 nM and the GI50 (K-562 leukemia) was 75.5 nM. The TGI (K-562 leukemia) was over 100000 nM, the GI50 (RXF 393 renal) was 3850 nM and the TGI (RXF 393 renal) was over 100000 nM. For the same compound, the GI50 (SNB-75 CNS) was 14.4 nM, the TGI (SNB-75 CNS) was 73700 nM and the GI50 (A549 NSCLC) was 436 nM. The TGI (A549 NSCLC) was over 100000 nM, the GI50 (MALME-3M melanoma) was 431 nM and the TGI (MALME-3M melanoma) was over 100000 nM. It also gave a GI50 (SK-MEL-28 melanoma) of 522 nM, a TGI (SK-MEL-28 melanoma) of over 100000 nM and a GI50 (SR leukemia) of 19.8 nM. For the same compound, the TGI (SR leukemia) was over 100000 nM, the GI50 (IGROV1 ovarian) was 87.6 nM and the TGI (IGROV1 ovarian) was over 100000 nM. It also gave a GI50 (PC-3 prostate) of 315 nM, a TGI (PC-3 prostate) of over 100000 nM and a GI50 (NCI/ADR-RES ovarian) of 845 nM. For the same compound, the TGI (NCI/ADR-RES ovarian) was over 100000 nM, the GI50 (HCT-116 colon) was 72.3 nM and the TGI (HCT-116 colon) was over 100000 nM. For the same compound, the GI50 (EKVX NSCLC) was 239 nM, the TGI (EKVX NSCLC) was over 100000 nM and the GI50 (MOLT-4 leukemia) was 328 nM. For the same compound, the TGI (MOLT-4 leukemia) was over 100000 nM, the GI50 (SK-MEL-5 melanoma) was 155 nM and the TGI (SK-MEL-5 melanoma) was 13700 nM. The GI50 (OVCAR-5 ovarian) was 492 nM, the TGI (OVCAR-5 ovarian) was over 100000 nM and the GI50 (COLO 205 colon) was 55.3 nM. The TGI (COLO 205 colon) was over 100000 nM, the GI50 (HCT-15 colon) was 86.9 nM and the TGI (HCT-15 colon) was over 100000 nM. It also gave a GI50 (HOP-62 NSCLC) of 87.5 nM, a TGI (HOP-62 NSCLC) of over 100000 nM and a GI50 (SK-MEL-2 melanoma) of 678 nM. For the same compound, the TGI (SK-MEL-2 melanoma) was over 100000 nM, the GI50 (SN12C renal) was 606 nM and the TGI (SN12C renal) was over 100000 nM. For the same compound, the GI50 (SNB-19 CNS) was 224 nM, the TGI (SNB-19 CNS) was over 100000 nM and the GI50 (UACC-62 melanoma) was under 15.3 nM. It also gave a TGI (UACC-62 melanoma) of over 56900 nM, a GI50 (OVCAR-3 ovarian) of 97.5 nM and a TGI (OVCAR-3 ovarian) of 53100 nM. The GI50 (DU-145 prostate) was 9880 nM, the TGI (DU-145 prostate) was over 100000 nM and the GI50 (MCF7 breast) was 23.4 nM. It also gave a TGI (MCF7 breast) of over 100000 nM, a GI50 (786-0 renal) of 186 nM and a TGI (786-0 renal) of over 100000 nM. It also gave a GI50 (A498 renal) of 81.3 nM and a TGI (A498 renal) of 3060 nM.
